Measurements reported in ChEMBL document CHEMBL1134427, “Synthesis and photophysical properties of new fluorinated benzo[c]xanthene dyes as intracellular pH indicators” (Bioorg Med Chem Lett, 2001).

Test: pKa value by using fluorescence emission spectra
Type: physicochemical

Row | pKa | SMILES
1 | 6.4 | CN(C)c1ccc2c(-c3cc(C(=O)O)ccc3C(=O)O)c3ccc4c(F)c(=O)ccc4c3oc2c1
2 | 7.5 | CN(C)c1ccc2c(-c3cc(C(=O)O)ccc3C(=O)O)c3ccc4cc(=O)ccc4c3oc2c1
3 | 7.2 | CN(C)c1ccc2c(-c3cc(C(=O)O)ccc3C(=O)O)c3cc(F)c4cc(=O)ccc4c3oc2c1
